Bridges are numbered along the chain shown (N, C = ends). Where no end group is shown, it is not given here.
How the values were obtained:
[1] = NIR fluorescence emission spectra of the probes; format: physicochemical; settings: excitation of 777 nm
Experimental: Triethylamine (65.3 μL, 0.467 mmol) and 3-mercaptopropionic acid (40.7 μL, 0.467 mmol) were added to a solution of IR-783 (250 mg, 0.33 mmol) in 6 mL of anhydrous dimethylformamide (“DMF”). The resulting green solution was stirred in the dark at room temperature. The conversion reaction of IR783 to CyTE777 was complete after 21 h, as monitored by high-performance liquid chromatography (“HPLC”). A green solid was isolated through precipitation with ether at 4° C. and was washed with 3 mL cold ether. The precipitate was dissolved in water and dried under vacuum.
The augmented fluorescence intensity indicated completed conjugation.
Pamidronate (“PAM”) was attached to the carboxylate surface of nanoAu to form nanoAu-Pam directly or using a zero-length crosslinking agent, i.e., 1-ethyl-3-[3-dimethyl-aminopropyl] carbodiimide hydrochloride (“EDC”). Briefly, equal volumes of nanoAu (40 mM), pamidronate (3 mM), and EDC (80 mM) were mixed at room temperature for 2 h. To concentrate the nanoAu-Pam, the reaction was loaded on a 30 kDa molecular sieve (Amicon) and centrifuged at 3000 rpm for 10 min. The solution was centrifuged twice and washed with phosphate-buffered saline (“PBS”) to remove any unbound reactants. […] The fluorescence intensity of excitation spectra was recorded using an Edinburgh FL 900 CDT Time-Resolved Fluorometer (Edinburgh Analytical Instruments, Livingston, UK).

[2] = statement on the purchased dye; cited from earlier work
[3] = tested on: undifferentiated MSCs; test: Calcein staining of undifferentiated MSCs; format: cell-based
Experimental: (§1) Cells were also stained with calcein using a standard protocol to confirm calcium deposition in the culture. A 10x calcein/PBS staining solution was added to each well without medium change. The cells were incubated at 37° C., 5% CO2 overnight, washed twice with PBS, fixed with formaldehyde, and observed by fluorescence microscopy.

[4] = tested on: osteoblastic-differentiated MSC culture; test: Calcein staining for calcium deposition in osteogenically induced MSC culture; format: cell-based; settings: MSC culture after 21 days of osteogenic induction
Experimental: as §1, with “For osteogenic induction, MSCs were cultured in 24-well plates in DMEM/LG medium supplemented with 10% FBS, 100 units/mL penicillin, 100 μg/mL streptomycin, 50 μg/ml L-ascorbate-2-phosphate, 10^−7 M dexamethasone and 10 mM β-glycero-phosphate at 37° C., 5% CO2. Cells” for “Cells”

[5] = tested on: osteoblastic-induced MSCs (α5β1); test: Binding specificity of α5β1L-CyTE777 in osteoblastic-induced MSCs, confocal microscopy; format: cell-based; settings: osteoblastic-induced MSC
Experimental: (§2) To determine the binding specificity of α5β1L-CyTE777, undifferentiated MSCs or osteoblastic-induced MSCs were cultured in 24-well plates in DMEM/LG supplemented with 10% FBS. α5β1L-CyTE777 was applied to the cultures to detect binding to α5β1 . Cultures incubated with α5β1L-CyTE777 were washed with PBS twice and analyzed by confocal microscopy after staining nuclei with diamidinophenylindole (“DAPI”).

[6] = tested on: undifferentiated MSCs; test: Binding specificity of α5β1L-CyTE777 in undifferentiated MSCs, confocal microscopy; format: cell-based; settings: undifferentiated MSC
Experimental: as §2

In the case of `CC1(C)C(=CC=C2CCCC(C=CC3=[N+](CCCCS(=O)(=O)[O-])c4ccccc4C3(C)C)=C2SCCC(=O)O)N(CCCCS(=O)(=O)[O-])c2ccccc21.[Na+]` [CyTE777], the NIR emission peak [1] is reported as 820 nm.

In the case of `CC1(C)C(=CC=C2CCCC(C=CC3=[N+](CCCCS(=O)(=O)[O-])c4ccccc4C3(C)C)=C2Cl)N(CCCCS(=O)(=O)[O-])c2ccccc21.[Na+]` [IR783], the cell toxicity [2] is given as “minimal cell toxicity”.

In the case of `O=C(O)CN(CC(=O)O)Cc1cc2c(cc1O)Oc1cc(O)c(CN(CC(=O)O)CC(=O)O)cc1C21OC(=O)c2ccccc21` [calcein], the “calcein staining (calcium deposition)” value [3] is reported as “No calcein staining” and the “calcein staining (calcium deposition)” value [4] is reported as “positive staining”.

In the case of “α5β1L-CyTE777: CyTE777 conjugated to the N-terminal glycine NH2 of disulfide-cyclised peptide GGCRRETAWAC (SEQ ID NO: 1) (CyTE777-GGCRRETAWAC; disulfide 3-11 (inferred))”, the “fluorescent signal of cells incubated with probe” value [5] is reported as “strong NIR fluorescence at 820 nm”, the NIR emission peak [1] is reported as 820 nm and the “fluorescent signal of cells incubated with probe” value [6] is reported as “did not show any fluorescent signal”.
